Test results published in PubChem BioAssay AID256 (DTP/NCI, 2004).
Where “and” joins values, the source holds several entries; their conditions need not be identical. Equal entries are not always repeated. Inconclusive results and toxic doses are left out. Rule for the calls: active = survival T/C of 150% or more; inactive = T/C below 125% in these data.

Test system: CD2F1 mice, L1210 leukemia ip, survival T/C
Assay: NCI In Vivo Anticancer Drug Screen. Data for tumor model L1210 Leukemia (intraperitoneal) in CD2F1 (CDF1) mice
Details: higher = longer survival
In short: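 Read-out first: treated-group measurement over vehicle-control measurement, expressed as a ratio. Animals bore a transplanted tumor line and were dosed with compound or vehicle.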

[1] = endpoint: mean survival time, dose: 100.0 mg/kg/injection, schedule: Q01DX009 (ip), vehicle: saline with Tween-80
[2] = endpoint: mean survival time, dose: 100.0 mg/kg/injection, schedule: Q04DX003 (ip), vehicle: saline with Tween-80
[3] = endpoint: mean survival time, dose: 200.0 mg/kg/injection, schedule: Q01DX009 (ip), vehicle: saline with Tween-80
[4] = endpoint: mean survival time, dose: 200.0 mg/kg/injection, schedule: Q04DX003 (ip), vehicle: saline with Tween-80
[5] = endpoint: mean survival time, dose: 400.0 mg/kg/injection, schedule: Q01DX009 (ip), vehicle: saline with Tween-80
[6] = endpoint: mean survival time, dose: 400.0 mg/kg/injection, schedule: Q04DX003 (ip), vehicle: saline with Tween-80

Measured: T/C

NC(=O)CC(N)CO (centres undefined)
inactive: endpoint: mean survival time, dose: 50.0 mg/kg/injection, schedule: Q01DX009 (ip), vehicle: saline 93 % of control | endpoint: mean survival time, dose: 100.0 mg/kg/injection, schedule: Q01DX009 (ip), vehicle: saline 98 % of control | endpoint: mean survival time, dose: 200.0 mg/kg/injection, schedule: Q01DX009 (ip), vehicle: saline 95 % of control | endpoint: mean survival time, dose: 400.0 mg/kg/injection, schedule: Q01DX009 (ip), vehicle: saline 98 % of control

Cc1ccc(S(=O)(=O)OCCCCCOS(=O)(=O)c2ccc(C)cc2)cc1
inactive: [1] 100 % of control | [2] 100 % of control | [3] 100 % of control | [4] 100 % of control | [5] 100 % of control | [6] 97 % of control

COC(=O)CCCCCCCCO
inactive: [1] 109 % of control | [2] 97 % of control | [3] 101 % of control | [4] 95 % of control | [5] 104 % of control | [6] 90 % of control

O=C1C(C2CC3c4[nH]c5ccccc5c4CCN3C2=O)CC2c3[nH]c4ccccc4c3CCN12 (centres undefined)
inactive: endpoint: mean survival time, dose: 100.0 mg/kg/injection, schedule: Q04DX002 (ip), vehicle: saline with Tween-80 93 % of control | endpoint: mean survival time, dose: 200.0 mg/kg/injection, schedule: Q04DX002 (ip), vehicle: saline with Tween-80 93 % of control | endpoint: mean survival time, dose: 400.0 mg/kg/injection, schedule: Q04DX002 (ip), vehicle: saline with Tween-80 93 % of control

O=P(O)(c1cc(Cl)cc(Cl)c1)c1cc(Cl)cc(Cl)c1
inactive: endpoint: mean survival time, dose: 18.8 mg/kg/injection, schedule: Q04DX003 (ip), vehicle: saline 100 % of control | endpoint: mean survival time, dose: 37.5 mg/kg/injection, schedule: Q04DX003 (ip), vehicle: saline 100 % of control | endpoint: mean survival time, dose: 75.0 mg/kg/injection, schedule: Q04DX003 (ip), vehicle: saline 102 % of control

O=S(=O)(O)C1CCC(O)C2[N-]CCCC21.O=S(=O)(O)C1CCC(O)C2[N-]CCCC21.[Zn+2] (centres undefined)
inactive: [1] 95 % of control | [2] 96 % of control | [4] 93 % of control | [5] 86 % of control | [6] 96 % of control

CC1CCC(C)C([N+](C)(C)C)C1 (centres undefined)
inactive: endpoint: mean survival time, dose: 12.5 mg/kg/injection, schedule: Q01DX001 (ip), vehicle: saline 102 % of control | endpoint: mean survival time, dose: 25.0 mg/kg/injection, schedule: Q01DX001 (ip), vehicle: saline 110 % of control | endpoint: mean survival time, dose: 50.0 mg/kg/injection, schedule: Q01DX001 (ip), vehicle: saline 100 % of control

Cc1cc2ccc(Cl)cc2[nH]1
inactive: endpoint: mean survival time, dose: 100.0 mg/kg/injection, schedule: Q01DX001 (ip), vehicle: other 104 % of control | endpoint: mean survival time, dose: 200.0 mg/kg/injection, schedule: Q01DX001 (ip), vehicle: other 104 % of control

CCCCCCCCCCCCCC[n+]1ccc(C#N)cc1
inactive: endpoint: mean survival time, dose: 7.5 mg/kg/injection, schedule: Q01DX001 (ip), vehicle: saline 97 % of control | endpoint: mean survival time, dose: 7.5 mg/kg/injection, schedule: Q01DX009 (ip), vehicle: saline 100 % of control | endpoint: mean survival time, dose: 15.0 mg/kg/injection, schedule: Q01DX001 (ip), vehicle: saline 92 % of control | endpoint: mean survival time, dose: 15.0 mg/kg/injection, schedule: Q01DX009 (ip), vehicle: saline 103 % of control | endpoint: mean survival time, dose: 30.0 mg/kg/injection, schedule: Q01DX001 (ip), vehicle: saline 100 % of control | endpoint: mean survival time, dose: 30.0 mg/kg/injection, schedule: Q01DX009 (ip), vehicle: saline 107 % of control

COCCCNC(=O)C1=CCCN(C)C1
inactive: endpoint: mean survival time, dose: 100.0 mg/kg/injection, schedule: Q04DX003 (ip), vehicle: saline 95 % of control | endpoint: mean survival time, dose: 200.0 mg/kg/injection, schedule: Q04DX003 (ip), vehicle: saline 96 % of control | endpoint: mean survival time, dose: 400.0 mg/kg/injection, schedule: Q04DX003 (ip), vehicle: saline 94 % of control

COc1cc(C(C)c2cc3c(cc2OCCO)OCO3)cc(OC)c1OC (centres undefined)
inactive: endpoint: median survival time, dose: 25.0 mg/kg/injection, schedule: Q01DX009 (ip), vehicle: saline with Tween-80 96 % of control and 106 % of control | endpoint: median survival time, dose: 50.0 mg/kg/injection, schedule: Q01DX009 (ip), vehicle: saline with Tween-80 106 % of control and 109 % of control | endpoint: median survival time, dose: 100.0 mg/kg/injection, schedule: Q01DX009 (ip), vehicle: saline with Tween-80 106 % of control and 110 % of control

[Cl][Pt+2][Cl].[NH-]Cc1ccccc1C[NH-]
inactive: endpoint: mean survival time, dose: 3.13 mg/kg/injection, schedule: Q04DX003 (ip), vehicle: dextrose 114 % of control | endpoint: mean survival time, dose: 6.25 mg/kg/injection, schedule: Q04DX003 (ip), vehicle: dextrose 116 % of control | endpoint: mean survival time, dose: 12.5 mg/kg/injection, schedule: Q04DX003 (ip), vehicle: dextrose 124 % of control | endpoint: mean survival time, dose: 25.0 mg/kg/injection, schedule: Q04DX003 (ip), vehicle: dextrose 114 % of control | endpoint: mean survival time, dose: 50.0 mg/kg/injection, schedule: Q04DX003 (ip), vehicle: dextrose 86 % of control
